Assay results published in patent publication US20160115542A1, “BIOMARKER OF Nrf2 ACTIVATION” (MOCHIDA PHARMACEUTICAL CO., LTD., priority 2013, published 2016).

Assays:
[1] = system: HFD-induced obesity model and diabetic db/db model mice; details: cited from earlier work
[2] = system: STZ-induced type 1 diabetic mice; details: cited from earlier work
[3] = system: HFD-induced insulin resistance and obesity; details: cited from earlier work
[4] = system: type 2 diabetes model rats; details: cited from earlier work
Nqo1 = test: Time-course of hepatic Nqo1 gene expression after single Nrf2 activator administration; format: in vivo, mouse; details: db/db mice, single oral administration 30 μmol/kg
Method: (§1) Total RNA was extracted from liver tissue using Isogen RNA extract kit (Nippon Gene), and reverse-transcribed to cDNA using SuperScript III (Invitrogen). Quantitative real-time PCR (qPCR) was carried out using TaqMan probes using an ABI 7300 system (Applied Biosystems). Relative expression of genes was normalized against Hprt (hypoxanthine guanine phosphoribosyl transferase) mRNA. The following primers and probes were used: […]
(§2) CDDO-Im was used as the Nrf2 activator, and orally administered to db/db mice in 30 μmol/kg. Blood and tissue were collected under isoflurane anesthesia after certain hours from the administration, and expression of the Nrf2 target gene Nqo1 in liver and plasma FGF21 concentration were measured in the same manner as in the method described in (1-2). The following primers and probes were used: […]

FGF21 [5] = test: Time-course of plasma FGF21 concentration after single Nrf2 activator administration; format: in vivo, mouse; details: db/db mice, single oral administration 30 μmol/kg
Method: (§3) FGF21 plasma concentration was measured using mouse/rat FGF21 Quantikine ELISA Kit (R & D Systems, Minneapolis, Minn., USA).
as §2

mouse Fgf21 reporter = test: FGF21 promoter (mouse Fgf21 reporter) luciferase assay in Hepa1 cells; format: cell-based; details: 100 nM, 48 hours
Method: Cloning of the mouse FGF21 promoter region was performed using a known technique. By using the mouse Fgf21 […] sequence as a template, a sequence (about 2.1 kbp) amplified with the primers 1.1 and 1.2 below was cloned into pGL4.15 vector (Promega) to create a mouse Fgf21 reporter vector.
The mouse Nrf2 cDNA sequence was cloned into pcDNA3.1/V5-His B vector (Invitrogen) to create a mouse Nrf2 expression vector.
Mouse hepatoma cells Hepa1c1c7 (Hepa1) were cultured in Dulbecco's Modified Eagle medium (Wako) supplemented with 10% fetal bovine serum, and 1% penicillin-streptomycin (Gibco). The mouse Fgf21 reporter vector and mouse Nrf2 expression vector, or the mouse Fgf21 reporter vector and an empty vector (mock) were transfected into Hepa1 cells using Lipofectamine 2000 Transfection Reagent (Invitrogen). The cells were cultured for 6 hours, and the medium was removed. The cells were further cultured for 48 hours after adding a medium containing 100 nM of Nrf2 activator CDDO-Im (2-cyano-3,12-dioxooleana-1,9(11)-dien-28-oic acid imidazol) or 0.1% dimethylsulfoxide (vehicle; Wako). Luciferase activity was then measured using a luminometer (Berthold).

[6] = system: high-fat-diet (HFD)-induced obesity; details: repetitive administration; cited from earlier work
FGF21 [7] = test: FGF21 induction by administration of Nrf2 activator in diabetic db/db mice (plasma ELISA, hepatic qPCR); format: in vivo, mouse; details: oral 10 mg/kg once a day for 1 week
Method: as §3, §1
Using spontaneous diabetic db/db mice, plasma FGF21 concentration and hepatic Fgf21 gene expression level were compared after administration of the Nrf2 activator. CDDO-Im was used as the Nrf2 activator, and orally administered in 10 mg/kg, once a day for 1 week. Blood and tissue were collected under isoflurane anesthesia after certain hours from the administration, and plasma FGF21 concentration and hepatic Fgf21 mRNA expression level were measured in the same manner as in the method described in (1-2).

In the case of `COC(=O)[C@]12CCC(C)(C)C[C@H]1[C@H]1C(=O)C=C3[C@@]4(C)C=C(C#N)C(=O)C(C)(C)[C@@H]4CC[C@@]3(C)[C@]1(C)CC2` [CDDO-Me, 2-cyano-3,12-dioxooleana-1,9(11)-dien-28-oic acid methyl ester], the “blood glucose level and plasma lipid level” value [1] is listed as “reduce”.

For `C[S+]([O-])CCCCN=C=S` (stereo not drawn) [sulforaphane], the β cell injury [2] is given as “protected β cell injury”.

In the case of `Cc1c(-c2cnccn2)ssc1=S` [oltipraz], the “HFD-induced insulin resistance and obesity” value [3] is given as “attenuates”.

For `O=C(/C=C/c1ccc(O)c2c1[C@H](C(=O)O[C@H](Cc1ccc(O)c(O)c1)C(=O)O)[C@@H](c1ccc(O)c(O)c1)O2)O[C@H](Cc1ccc(O)c(O)c1)C(=O)O` [lithospermic acid B (LAB), lithospermic acid B], the β cell injury [4] is given as “protected β cell injury”.

For `CC1(C)CC[C@]2(C(=O)n3ccnc3)CC[C@]3(C)[C@H](C(=O)C=C4[C@@]5(C)C=C(C#N)C(=O)C(C)(C)[C@@H]5CC[C@]43C)[C@@H]2C1` [CDDO-Im, 1-[2-cyano-3,12-dioxooleana-1,9(11)-dien-28-oyl]imidazole], the “Nqo1 gene expression in liver” value (Nqo1) was “increased”, the “time for which increased hepatic Nqo1 expression level was sustained after administration” value (Nqo1) was 48 h and the “plasma FGF21 concentration” value (FGF21 [5]) was “increased”. The “time postdose until which increased plasma FGF21 concentration was maintained” value (FGF21 [5]) was 48 h, the “luciferase activity enhancement compared with the vehicle” value (mouse Fgf21 reporter; Fgf21 reporter + empty vector (mock)) was “about 2 fold” and the “luciferase activity with transfection of mouse Nrf2 expression vector and addition of compound” value (mouse Fgf21 reporter; Fgf21 reporter + mouse Nrf2 expression vector) was “further increased”. The “high-fat-diet (HFD)-induced obesity” value [6] was “prevents”, the “induction of hepatic FGF21 gene expression level in Nrf2 gene knockout db/db mice” value (FGF21 [7]; Nrf2 gene knockout db/db mice) was “abolished” and the “induction of plasma FGF21 concentration in Nrf2 gene knockout db/db mice” value (FGF21 [7]; Nrf2 gene knockout db/db mice) was “abolished”. The “hepatic FGF21 gene expression level” value (FGF21 [7]; db/db mice, vs vehicle) was “significantly increased” and the “plasma FGF21 concentration” value (FGF21 [7]; db/db mice, vs vehicle) was “significantly increased”.
